Experimental data reported in patent US20150175530A1, “ANTIBACTERIAL AGENTS” (priority 2012, published 2015).
Values after ≈ are worked out from the molar mass of the structure shown. Like-named read-outs stand apart in the source and are kept apart here.

Experiments:
[1] = test system: bacterial isolates (clinical isolates and ATCC quality control strains); experiment: Minimum Inhibitory Concentrations (MICs) by broth microdilution (CLSI susceptibility testing); type: cell-based
Experimental: Bacterial isolates were cultivated from −70° C. frozen stocks by overnight passages at 35° C. in ambient air on Mueller-Hinton agar (Beckton Dickinson, Franklin Lakes, N.J.). Clinical isolates tested were obtained from various geographically diverse hospitals in the US and abroad (Focus Diagnostics, Herndon, Va. and JMI, North Liberty, Iowa). Quality control strains were from the American Type Culture Collection (ATCC; Rockville, Md.).
Minimum Inhibitory Concentrations (MICs) were determined by the broth microdilution method in accordance with the Clinical and Laboratory Standards Institute (CLSI) guidelines. In brief, organism suspensions were adjusted to a 0.5 McFarland standard to yield a final inoculum between 3×10^5 and 7×10^5 colony-forming units (CFU)/mL. Drug dilutions and inocula were made in sterile, cation adjusted Mueller-Hinton Broth (Beckton Dickinson). An inoculum volume of 100 μL was added to wells containing 100 μL of broth with 2-fold serial dilutions of drug. All inoculated microdilution trays were incubated in ambient air at 35° C. for 18-24 h. Following incubation, the lowest concentration of the drug that prevented visible growth (OD600 nm<0.05) was recorded as the MIC. Performance of the assay was monitored by the use of laboratory quality-control strains and levofloxacin, a compound with a defined MIC spectrum, in accordance with CLSI guidelines.

[2] = test system: 3 P. aeruginosa strains (APAE001, APAE002, APAE006); experiment: Protein binding: fold change in MIC in the presence of 2% HSA and 0.05% AGP, Geomean of 3 strains; type: cell-based, Pseudomonas aeruginosa; details: MIC in the presence of 2% HSA and 0.05% AGP divided by MIC in the absence; Geomean of 3 P. aeruginosa strains (APAE001, APAE002, APAE006)
Experimental: The effect of human serum albumin (HSA) and α-1-acid glycoprotein (AGP) from human plasma, which are known to nonspecifically bind to certain antibiotics and thereby reduce their activity (Banéres-Roquet et al. 2009 “Use of a Surface Plasmon Resonance Method to Investigate Antibiotic and Plasma Protein Interactions” Antimicrob. Agents and Chemother. 53(4):1528-1531), was assessed against 3 P. aeruginosa strains (APAE001, APAE002, APAE006). APAE001 is Pseudomonas aeruginosa ATCC27853; APAE002 is a wildtype lab strain of Pseudomonas aeruginosa known as PAM1020 or PA01. APAE006 is a strain of […]/PA01 with efflux deletions: delta mexAB-oprM::CM delta CD-oprJ::Gm delta mexEF-oprN::omega Hg. Lomovskaya, 0 et al. 1999. Use of a Genetic Approach To Evaluate the Consequences of Inhibition of Efflux Pumps in P aeruginosa. Antimicrob. Agents Chemother. 43: 1340-1346.
The standard procedure described in Susceptibility Testing was utilized with one adjustment, specifically 2% HSA and 0.05% AGP were added to the cation adjusted Mueller-Hinton Broth. The MIC for each strain of interest was then assessed in the presence and absence of HSA/AGP. Following MIC determination, the fold change in MIC was determined for each individual strain by dividing the MIC in the presence of HSA/AGP by the MIC in the absence of HSA/AGP. The protein binding Geomean was then calculated using these 3 values.

[3] = APAE1096 is a clinical isolate, broth microdilution, read-out: Minimum Inhibitory Concentrations (MICs) APAE1096
[4] = Pseudomonas aeruginosa, APAE002 is a wildtype lab strain of Pseudomonas aeruginosa known as PAM1020 or PA01, broth microdilution, read-out: Minimum Inhibitory Concentrations (MICs) APAE002
[5] = Pseudomonas aeruginosa, ATCC27853, APAE001 is Pseudomonas aeruginosa ATCC27853, broth microdilution, read-out: Minimum Inhibitory Concentrations (MICs) APAE001

Row | Compound | MIC [1, 3] [µg/mL] | MIC [1, 4] [µg/mL] | MIC [1, 5] [µg/mL] | Protein Binding PB (Geomean of fold change in MIC) [2] | MIC ([1]; Pseudomonas aeruginosa, ATCC27853, read-out: Minimum Inhibitory Concentrations (MICs) APAE001) [µg/mL] | MIC ([1]; Pseudomonas aeruginosa, read-out: Minimum Inhibitory Concentrations (MICs) APAE002) [µg/mL] | MIC ([1]; read-out: Minimum Inhibitory Concentrations (MICs) APAE1096) [µg/mL] | Minimum Inhibitory Concentrations (MICs) APAE1096 ([1]; APAE1096 is a clinical isolate, broth microdilution)
1 | CNC(C)(C)[C@H](NC(=O)c1ccc(C#CC#CC[C@H](O)CO)cc1)C(=O)NO [Compound 43, 4-((S)-6,7-dihydroxyhepta-1,3-diyn-1-yl)-N—((S)-1-(hydroxyamino)-3-methyl-3-(methylamino)-1-oxobutan-2-yl)benzamide] | 1 to 8 (≈ 2.58 to 20.6 µM) | < 1 | < 1 | 1.6 | – | – | – | –
2 | C[C@@H](O)C#CC#Cc1ccc(C(=O)N[C@H](C(=O)NO)C(C)(C)N)cc1 [Compound 15, N—((S)-3-amino-1-(hydroxyamino)-3-methyl-1-oxobutan-2-yl)-4-((R)-5-hydroxyhexa-1,3-diynyl)benzamide] | < 1 | < 1 | < 1 | 2.3 | – | – | – | –
3 | CC(C)(O)[C@H](NC(=O)c1ccc(C#CC#CCCO)cc1)C(=O)NO [Compound 34, (S)—N-(3-hydroxy-1-(hydroxyamino)-3-methyl-1-oxobutan-2-yl)-4-(6-hydroxyhexa-1,3-diynyl)benzamide] | 1 to 8 (≈ 2.9 to 23.2 µM) | < 1 | < 1 | 2.8 | – | – | – | –
4 | CCNC(C)(C)[C@H](NC(=O)c1ccc(C#CC#CCCO)cc1)C(=O)NO [Compound 10, (S)—N-(3-(ethylamino)-1-(hydroxyamino)-3-methyl-1-oxobutan-2-yl)-4-(6-hydroxyhexa-1,3-diynyl)benzamide] | – | – | – | 2.2 | < 1 | < 1 | < 1 | –
5 | CNC(C)(C)[C@H](NC(=O)c1ccc(C#CC#CC[C@@H](O)CO)cc1)C(=O)NO [Compound 44, 4-((R)-6,7-dihydroxyhepta-1,3-diyn-1-yl)-N—((S)-1-(hydroxyamino)-3-methyl-3-(methylamino)-1-oxobutan-2-yl)benzamide] | 1 to 8 (≈ 2.58 to 20.6 µM) | < 1 | < 1 | 2.0 | – | – | – | –
6 | CC(C)(N)[C@H](NC(=O)c1ccc(C#CC#C[C@H](O)CO)cc1)C(=O)NO [Compound 61, N—((S)-3-amino-1-(hydroxyamino)-3-methyl-1-oxobutan-2-yl)-4-((S)-5,6-dihydroxyhexa-1,3-diyn-1-yl)benzamide] | 1 to 8 (≈ 2.78 to 22.3 µM) | < 1 | < 1 | 1.6 | – | – | – | –
7 | CNC(C)(C)[C@H](NC(=O)c1ccc(C#CC#CCO)cc1)C(=O)NO [Compound 5, (S)—N-(1-(hydroxyamino)-3-methyl-3-(methylamino)-1-oxobutan-2-yl)-4-(5-hydroxypenta-1,3-diynyl)benzamide] | < 1 | < 1 | < 1 | 1.6 | – | – | – | –
8 | C[C@H](O)C#CC#Cc1ccc(C(=O)N[C@H](C(=O)NO)[C@@H](N)C(F)(F)F)cc1 [Compound 59, N-((2S,3R)-3-amino-4,4,4-trifluoro-1-(hydroxyamino)-1-oxobutan-2-yl)-4-((S)-5-hydroxyhexa-1,3-diyn-1-yl)benzamide] | 1 to 8 (≈ 2.61 to 20.9 µM) | < 1 | 1 to 8 (≈ 2.61 to 20.9 µM) | 3.2 | – | – | – | –
9 | C[C@H](O)C#CC#Cc1ccc(C(=O)N[C@H](C(=O)NO)C(C)(C)N)cc1 [Compound 14, N—((S)-3-amino-1-(hydroxyamino)-3-methyl-1-oxobutan-2-yl)-4-((S)-5-hydroxyhexa-1,3-diynyl)benzamide] | 1 to 8 (≈ 2.91 to 23.3 µM) | < 1 | < 1 | 3.4 | – | – | – | –
10 | CC(O)(C#CC#Cc1ccc(C(=O)N[C@H](C(=O)NO)C(C)(C)N)cc1)CO (stereo partly drawn) [Compound 50, N—((S)-3-amino-1-(hydroxyamino)-3-methyl-1-oxobutan-2-yl)-4-(5,6-dihydroxy-5-methylhexa-1,3-diyn-1-yl)benzamide] | 8 to 16 (≈ 21.4 to 42.8 µM) | 1 to 8 (≈ 2.68 to 21.4 µM) | < 1 | 1.6 | – | – | – | –
11 | CC(C#CC#Cc1ccc(C(=O)N[C@H](C(=O)NO)C(C)(C)N)cc1)CO (stereo partly drawn) [Compound 39, N—((S)-3-amino-1-(hydroxyamino)-3-methyl-1-oxobutan-2-yl)-4-(6-hydroxy-5-methylhexa-1,3-diyn-1-yl)benzamide] | 1 to 8 (≈ 2.8 to 22.4 µM) | < 1 | < 1 | 2.8 | – | – | – | –
12 | CC(C)(N)[C@H](NC(=O)c1ccc(C#CC#C[C@]2(O)C[C@@H](CO)C2)cc1)C(=O)NO [Compound 27, N—((S)-3-amino-1-(hydroxyamino)-3-methyl-1-oxobutan-2-yl)-4-(((1S,3R)-1-hydroxy-3-(hydroxymethyl)cyclobutyl)buta-1,3-diynyl)benzamide] | 1 to 8 (≈ 2.5 to 20 µM) | < 1 | < 1 | 1.8 | – | – | – | –
13 | CNC(C)(C)[C@H](NC(=O)c1ccc(C#CC#C[C@H](C)O)cc1)C(=O)NO [Compound 16, N—((S)-1-(hydroxyamino)-3-methyl-3-(methylamino)-1-oxobutan-2-yl)-4-((S)-5-hydroxyhexa-1,3-diynyl)benzamide] | 1 to 8 (≈ 2.8 to 22.4 µM) | < 1 | < 1 | 3.6 | – | – | – | –
14 | CN[C@H](C)[C@H](NC(=O)c1ccc(C#CC#C[C@H](C)O)cc1)C(=O)NO [Compound 49, N-((2S,3R)-1-(hydroxyamino)-3-(methylamino)-1-oxobutan-2-yl)-4-((S)-5-hydroxyhexa-1,3-diyn-1-yl)benzamide] | 1 to 8 (≈ 2.91 to 23.3 µM) | < 1 | < 1 | 2.0 | – | – | – | –
15 | CC(C)(N)[C@H](NC(=O)c1ccc(C#C/C=C/CCO)cc1)C(=O)NO [Compound 55, (S,E)-N-(3-amino-1-(hydroxyamino)-3-methyl-1-oxobutan-2-yl)-4-(6-hydroxyhex-3-en-1-yn-1-yl)benzamide] | 1 to 8 (≈ 2.9 to 23.2 µM) | < 1 | < 1 | 2.0 | – | – | – | –
16 | CC(C)(N)[C@H](NC(=O)c1ccc(C#C/C=C/CC(O)CO)cc1)C(=O)NO (stereo partly drawn) [Compound 52, N—((S)-3-amino-1-(hydroxyamino)-3-methyl-1-oxobutan-2-yl)-4-((E)-6,7-dihydroxyhept-3-en-1-yn-1-yl)benzamide] | 8 to 16 (≈ 21.3 to 42.6 µM) | 1 to 8 (≈ 2.66 to 21.3 µM) | 1 to 8 (≈ 2.66 to 21.3 µM) | 1.0 | – | – | – | –
17 | CC(C)(N)[C@H](NC(=O)c1ccc(C#CC#CC2C[C@H](O)[C@@H]2CO)cc1)C(=O)NO (single isomer, unassigned) [Compound 30A] | – | < 1 | < 1 | 2.5 | – | – | – | C (C = MIC's of greater than 8.0 μg/mL to 16.0 μg/mL)
18 | CC(C)(O)[C@H](NC(=O)c1ccc(C#CC#CCO)cc1)C(=O)NO [Compound 4, (S)—N-(3-hydroxy-1-(hydroxyamino)-3-methyl-1-oxobutan-2-yl)-4-(5-hydroxypenta-1,3-diynyl)benzamide] | 1 to 8 (≈ 3.03 to 24.2 µM) | < 1 | < 1 | – | – | – | – | –
19 | CC(C)(N)[C@H](NC(=O)c1ccc(C#CC#CC(O)CCO)cc1)C(=O)NO (stereo partly drawn) [Compound 46, N—((S)-3-amino-1-(hydroxyamino)-3-methyl-1-oxobutan-2-yl)-4-(5,7-dihydroxyhepta-1,3-diyn-1-yl)benzamide] | 1 to 8 (≈ 2.68 to 21.4 µM) | < 1 | < 1 | – | – | – | – | –
20 | CC(C)(O)[C@H](NC(=O)c1ccc(C#CC#CC(O)CO)cc1)C(=O)NO (stereo partly drawn) [Compound 60, 4-(5,6-dihydroxyhexa-1,3-diyn-1-yl)-N—((S)-3-hydroxy-1-(hydroxyamino)-3-methyl-1-oxobutan-2-yl)benzamide] | – | – | 1 to 8 (≈ 2.77 to 22.2 µM) | – | – | – | – | –
21 | CC(C#CC#Cc1ccc(C(=O)N[C@H](C(=O)NO)C(C)(C)N)cc1)C(O)CO (single isomer, unassigned) [Compound 20B] | – | – | – | 1.0 | – | – | – | –
